PubChem BioAssay (NCI)
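Dose response: 5 concentrations. Exposure: 48 h. Format: 96-well plates. Endpoint: linear interpolation; highest concentration if not reached. GI50 marks 50% less growth. TGI marks complete inhibition of growth.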

Legend:
Assay in all cases: DTP human tumour cell line panel, 48 h
[1] = test system: HOP-62 NSCLC
[2] = test system: SNB-19 CNS
[3] = test system: HT29 colon
[4] = test system: RPMI-8226 leukemia
[5] = test system: NCI-H226 lung
[6] = test system: OVCAR-4 ovarian
[7] = test system: MDA-MB-435
[8] = test system: A498 renal
[9] = test system: SK-MEL-5 melanoma
[10] = test system: MOLT-4 leukemia
[11] = test system: SW-620 colon
[12] = test system: M14 melanoma
[13] = test system: MALME-3M melanoma
[14] = test system: KM12 colon
[15] = test system: SNB-75 CNS
[16] = test system: ACHN renal
[17] = test system: NCI-H23 lung
[18] = test system: UO-31 renal
[19] = test system: SF-295 CNS
[20] = test system: DU-145 prostate
[21] = test system: NCI-H522 lung
[22] = test system: SF-539 CNS
[23] = test system: UACC-62 melanoma
[24] = test system: OVCAR-5 ovarian
[25] = test system: SK-MEL-2 melanoma
[26] = test system: SF-268 CNS
[27] = test system: BT-549 breast
[28] = test system: T-47D breast
[29] = test system: OVCAR-8 ovarian

Q: For `CN(C)c1nc(NCCNS(=O)(=O)c2ccc(C(=O)/C=C/c3ccc(Cl)cc3)cc2)nc(Nc2ccc(F)cc2)n1`, which GI50 [1] is on record?
A: 12.5 µM

Q: What about the TGI [1] of the same compound?
A: 27.5 µM

Q: And the GI50 [2]?
A: 9.18 µM

Q: What about the TGI [2] of the same compound?
A: 21.3 µM

Q: And the GI50 [3]?
A: 2.15 µM

Q: And the TGI [3]?
A: 5.72 µM

Q: What about the GI50 [4] of the same compound?
A: 2.47 µM

Q: What about the TGI [4] of the same compound?
A: 7.11 µM

Q: And the GI50 [5]?
A: 6.14 µM

Q: And the TGI [5]?
A: 24.3 µM

Q: What about the GI50 [6] of the same compound?
A: 5.92 µM

Q: And the TGI [6]?
A: 22 µM

Q: What about the GI50 [7] of the same compound?
A: 3.8 µM

Q: What about the TGI [7] of the same compound?
A: 14 µM

Q: What about the GI50 [8] of the same compound?
A: 10.5 µM

Q: What about the TGI [8] of the same compound?
A: 23.1 µM

Q: What about the GI50 [9] of the same compound?
A: 5.89 µM

Q: What about the TGI [9] of the same compound?
A: 18.8 µM

Q: What about the GI50 [10] of the same compound?
A: 3.07 µM

Q: What about the TGI [10] of the same compound?
A: > 100 µM

Q: And the GI50 [11]?
A: 2.78 µM

Q: And the TGI [11]?
A: 11 µM

Q: What about the GI50 [12] of the same compound?
A: 4.14 µM

Q: What about the TGI [12] of the same compound?
A: 15.3 µM

Q: And the GI50 [13]?
A: 12.8 µM

Q: What about the TGI [13] of the same compound?
A: 26.4 µM

Q: What about the GI50 [14] of the same compound?
A: 2.97 µM

Q: And the TGI [14]?
A: 9.11 µM

Q: And the GI50 [15]?
A: 5.6 µM

Q: What about the TGI [15] of the same compound?
A: 25.7 µM

Q: And the GI50 [16]?
A: 4.2 µM

Q: And the TGI [16]?
A: 15.3 µM

Q: And the GI50 [17]?
A: 10.7 µM

Q: And the TGI [17]?
A: 23.4 µM

Q: And the GI50 [18]?
A: 4 µM

Q: And the TGI [18]?
A: 16.6 µM

Q: And the GI50 [19]?
A: 6.11 µM

Q: What about the TGI [19] of the same compound?
A: 19.8 µM

Q: What about the GI50 [20] of the same compound?
A: 9.7 µM

Q: And the TGI [20]?
A: 21.8 µM

Q: What about the GI50 [21] of the same compound?
A: 7.1 µM

Q: And the TGI [21]?
A: 22 µM

Q: And the GI50 [22]?
A: 10.1 µM

Q: And the TGI [22]?
A: 22 µM

Q: And the GI50 [23]?
A: 5.41 µM

Q: What about the TGI [23] of the same compound?
A: 18.7 µM

Q: What about the GI50 [24] of the same compound?
A: 10.7 µM

Q: And the TGI [24]?
A: 22.6 µM

Q: What about the GI50 [25] of the same compound?
A: 5.47 µM

Q: And the TGI [25]?
A: 19.5 µM

Q: And the GI50 [26]?
A: 6.21 µM

Q: And the TGI [26]?
A: 23.5 µM

Q: And the GI50 [27]?
A: 11.6 µM

Q: What about the TGI [27] of the same compound?
A: 23.9 µM

Q: What about the GI50 [28] of the same compound?
A: 4.37 µM

Q: And the TGI [28]?
A: 18 µM

Q: And the GI50 [29]?
A: 10.2 µM

Q: What about the TGI [29] of the same compound?
A: 23.7 µM
